Format in all cases: in vivo
Data set [1] has as its system dogs suffering from osteoarthritis. Nature of the data set: Example 1: pain relief and side effects in canine osteoarthritis. The following applies: dogs with osteoarthritis, 4 weeks of administration, group average. The source says: This example examines the ability of various compositions to minimize pain and examines the level of adverse side effects of each composition.
At the outset of the study, participants receive a full physical examination, including weight measurement, thigh circumference, and CBC/blood chemistries. Because osteoarthritis is not only a disease of pain, but one characterized by behavioral, appetite, anxiety/aggression, family socialization, and sleep aberrations, the pet's owners are familiarized with the pain scale (canine orthopedic index) and additional behavioral assessment log.
The patient group is twenty-four dogs suffering from osteoarthritis, broken into eight groups of three dogs. The first group receives a control composition with no active agent; the second group receives a composition comprising HA as the sole active agent; the third group receives a composition comprising HMW HA as the sole active agent; the fourth group receives a composition comprising CBD as the sole active agent; the fifth group receives a composition comprising HA and CBD as the active agents; the sixth group receives a composition comprising HMW HA and CBD as the active agents; the seventh group receives a composition comprising Rimadyl as the active agent; and the eighth group receives a composition comprising Meloxicam as the active agent.
Each composition is administered for a period of four (4) weeks. The owner completes the electronic log questionnaire each week. At the end of the 4-week study, participants have another full physical examination, including weight measurement, thigh circumference, and CBC/blood chemistries, with an exit interview of the owners to gain final impressions.
Each group is evaluated for pain scores and the scores averaged. The following scores are observed and the results depicted in FIG. 1: […]

Data set [2] relates to dogs suffering behavior aberrations and/or anxiety. Nature of the data set: Example 5: behavior aberrations and anxiety, C-BARQ (canine). Particulars: C-BARQ day 0 vs 60, SID, 0 (no improvement) to 3 (marked improvement). The source says: (§1) This example examines the ability of embodiments of the invention versus Clomicalm® to reduce behavior aberrations and anxiety.
(§2) The first patient group is twenty dogs suffering behavior aberrations and/or anxiety, as determined by the canine behavioral assessment and research questionnaire (“C-BARQ”). See, e.g., P. Wiener et al., Use of questionnaire-based data to assess dog personality, 16 JOURNAL OF VETERINARY BEHAVIOR 81-85 (2016). The second patient group is twenty cats suffering behavior aberrations and/or anxiety, as determined by the feline behavioral assessment and research questionnaire (“Fe-BARQ”).
(§3) Each group is broken into five groups of four animals. The first group receives Clomicalm® as the sole active agent; the second group receives a composition comprising HMW HA as the sole active agent; the third group receives a composition comprising CBD as the sole active agent; the fourth group receives a composition comprising HMW HA and CBD as the active agents; and the fifth group receives a composition comprising HMW HA, CBD, valerian root, and scutillaria as the active agents.
(§4) Each composition is administered for a period of sixty (60) days, once a day (“SID”). Owners complete the species-appropriate C-BARQ or Fe-BARQ on days 0 and 60 of treatment. The results from the overall questionnaire are averaged and characterized as no improvement (score of 0), mild improvement (score of 1), moderate improvement (score of 2), or marked improvement (score of 3).
The following canine scores are observed and the results depicted in FIG. 5a: […]

The test system of data set [3] is cats suffering behavior aberrations and/or anxiety. Nature of the data set: Example 5: behavior aberrations and anxiety, Fe-BARQ (feline). The following applies: Fe-BARQ day 0 vs 60, SID, 0 (no improvement) to 3 (marked improvement).
Text: as §1, §2, §3, §4
The following feline scores are observed and the results depicted in FIG. 5b: […]

In data set [4] the test system is dogs with a history of severe, chronic skin issues, atopy, pruritis, yeast overgrowth, and/or infection. The experiment in a line: Example 8: skin conditions (itch score) and side effects in dogs. Further details: Average Side Effect Score: scale not given here. The following applies: for Average Side Effect Score: dogs with skin conditions, 60 days BID; for Initial Itch Score / Final Itch Score: itch scale 0 (no itching) to 10 (extremely severe); for Initial Itch Score: day 0; for Final Itch Score: day 60, BID. The source says: This example examines the ability of embodiments of the invention versus prednisone to treat skin conditions.
The patient group is twenty-four dogs with a history of severe, chronic skin issues, atopy, pruritis, yeast overgrowth, and/or infection, as diagnosed by their referring veterinarian. The patient group is broken into six groups of four animals. The first group receives prednisone as the sole active agent; the second group receives a composition comprising prednisone and HMW HA as the active agents; the third group receives a composition comprising HMW HA as the sole active agent; the fourth group receives a composition comprising CBD as the sole active agent; the fifth group receives a composition comprising HMW HA and CBD as the active agents; and the sixth group receives a composition comprising HMW HA, CBD, quercetin, and nettles as the active agents.
Each composition is administered for a period of sixty (60) days, BID. Each dog is evaluated on days 0 (“Initial Score”), 20, 40, and 60 (“Final Score”) of treatment. The results are averaged and characterized on a scale of 0 (no itching—normal dog), 2 (very mild itching—only occasional episodes), 4 (mild itching), 6 (moderate itching—regular episodes), 8 (severe itching—prolonged episodes), to 10 (extremely severe itching—almost continuous).
The following scores are observed and the results depicted in FIG. 8: […]

The test system of data set [5] is horses suffering from joint inflammation. The experiment in a line: Example 12: joint inflammation, thermal imaging (equine, CBD Complex). Particulars: over the inflamed joint, 60 days BID. The source says: This example examines the ability of embodiments of the invention versus Cosequin® to treat joint inflammation.
The first patient group is twenty dogs suffering from joint inflammation. The second patient group is twenty cats suffering from joint inflammation. The third patient group is twenty horses suffering from joint inflammation. Each patient group is broken into five groups of four animals. The first groups receive Cosequin® as the sole active agent; the second groups receive a composition comprising HMW HA as the sole active agent; the third groups receive a composition comprising CBD as the sole active agent; the fourth groups receive a composition comprising HMW HA and CBD Complex as the active agents; and the fifth groups receive a composition comprising HMW HA, CBD Complex, Boswellia, and superoxide dismutase (“SOD”) as the active agents.
Each composition is administered for a period of sixty (60) days, BID. Efficacy is determined by a decrease in body temperature over the inflamed joint, as measured by thermal imaging (e.g., via Digatherm device). Thermal imaging is performed on days 0 (“Initial Score”), 15, 30, 45, and 60 (“Final Score”) of treatment.
The following equine scores are observed and the results depicted in FIG. 12c: […]

`C=C(C)[C@@H]1CCC(C)=C[C@H]1c1c(O)cc(CCCCC)cc1O` [CBD Alone, 2-[(1R,6R)-3-methyl-6-prop-1-en-2-ylcyclohex-2-en-1-yl]-5-pentylbenzene-1,3-diol]: in data set [1], the “Average Pain Score” value is reported as 19 and the “Average Side Effect Score” value is given as 0.5. In data set [1] (listed as CBD alone), the “Average Pain Score” value is given as “not especially effective in reducing pain” and the “Average Side Effect Score” value was “even lower degree of adverse side effects”. For the same compound, in data set [2], the “Improvement Score” value was 2. For the same compound, in data set [3], the “Improvement Score” value was found to be 1.8. For the same compound, in data set [4], the “Average Side Effect Score” value is listed as “.5”, the “Initial Itch Score” value came to 9 and the “Final Itch Score” value came out at 5. In addition, the “Reduction in Temperature (° F.)” value in data set [5] came to 1.6 ° F.

For hyaluronic acid [HMW HA Alone], in data set [1], the “Average Pain Score” value is listed as 16 and the “Average Side Effect Score” value was 4. In data set [1] (listed as HMW HA alone), the “Average Pain Score” value is “only slightly reduce pain” and the “Average Side Effect Score” value is reported as “low degree of adverse side effects”. In data set [2], the “Improvement Score” value is reported as 1. In data set [3], the “Improvement Score” value was determined as 1. For the same compound, in data set [4], the “Average Side Effect Score” value is reported as 4, the “Initial Itch Score” value came to 9 and the “Final Itch Score” value was found to be 7. The “Reduction in Temperature (° F.)” value in data set [5] is 2.1 ° F.
